pIC50: −log10 of the molar value. Calls of active or inactive are those of the source. No cut-off for these calls is given here. Numbered stars: 1 amine (or outer) side, 2 acyl side, 3 side chain; on linkers, the order of the positions; unused ones are H or OH. Bridge positions count the residues as written; N and C are the ends. Square brackets hold non-standard residues; d marks the D form. Peptide text beside a SMILES is read from it. I, II: the chains in the order shown. ξ: configuration not given here. X1 = O=C([C@H](Cc1c[nH]c2ccccc12)N(c1ccc([N+](=O)[O-])c2nonc12)[*:1])[*:2]; ξN = NC(=O)CC(N)C(=O)O
How the values were obtained:
[1] = test system: A549; assay: Induction of apoptosis in human A549 cells assessed as viable cells at 15 uM measured after 24 hrs by Annexin V-FITC/propidium iodide staining based flow cytometry relative to control; format: functional; settings: read-out: Activity
[2] = test system: BEAS-2B; assay: Induction of apoptosis in human BEAS-2B cells assessed as reduction in viable cells at 15 uM measured after 24 hrs by Annexin V-FITC/propidium iodide staining based flow cytometry; format: toxicity, cell-based
[3] = test system: HepG2; assay: Cytotoxicity against human HepG2 cells assessed as cell viability at 30 uM measured after 24 hrs by CCK-8 assay relative to control; format: functional; settings: read-out: Activity
[4] = Cytotoxicity against human L02 cells assessed as reduction in cell viability measured after 24 hrs by CCK-8 assay; format: toxicity, cell-based
[5] = test system: A549; assay: Cytotoxicity against human A549 cells assessed as reduction in cell viability measured after 24 hrs by CCK-8 assay; format: functional, cell-based; settings: for pIC50: A549, 24 h
[6] = Cytotoxicity against human BEAS-2B cells assessed as reduction in cell viability measured after 24 hrs by CCK-8 assay; format: toxicity, cell-based
[7] = test system: HepG2; assay: Cytotoxicity against human HepG2 cells assessed as reduction in cell viability measured after 24 hrs by CCK-8 assay; format: functional, cell-based; settings: for pIC50: HepG2, 24 h
[8] = test system: A549; assay: Cytotoxicity against human A549 cells assessed as cell viability at 30 uM measured after 24 hrs by CCK-8 assay relative to control; format: functional; settings: read-out: Activity
[9] = test system: L02; assay: Induction of apoptosis in human L02 cells assessed as reduction in viable cells at 15 uM measured after 24 hrs by Annexin V-FITC/propidium iodide staining based flow cytometry; format: toxicity, cell-based; settings: l02, 24 h
[10] = test system: HepG2; assay: Induction of apoptosis in human HepG2 cells assessed as viable cells at 15 uM measured after 24 hrs by Annexin V-FITC/propidium iodide staining based flow cytometry relative to control; format: functional; settings: read-out: Activity
[11] = test system: HepG2; assay: Induction of morphological changes in human HepG2 cells assessed as appearance of abnormal cell morphology at 15 uM measured after 24 hrs by high-throughput microscopy; format: functional, cell-based
[12] = test system: A549; assay: Induction of apoptosis in human A549 cells assessed as increase in necrotic cells at 15 uM measured after 24 hrs by Annexin V-FITC/propidium iodide staining based flow cytometry; format: functional, cell-based
[13] = test system: HepG2; assay: Induction of apoptosis in human HepG2 cells assessed as increase in late apoptotic cells at 15 uM measured after 24 hrs by Annexin V-FITC/propidium iodide staining based flow cytometry; format: functional, cell-based
[14] = test system: A549; assay: Induction of cell membrane disruption in human A549 cells assessed as increase in LDH release at 15 uM measured after 1 hr by LDH releasing reagent based assay
[15] = test system: HepG2; assay: Induction of apoptosis in human HepG2 cells assessed as increase in necrotic cells at 15 uM measured after 24 hrs by Annexin V-FITC/propidium iodide staining based flow cytometry; format: functional, cell-based
[16] = test system: A549; assay: Induction of apoptosis in human A549 cells assessed as increase in late apoptotic cells at 15 uM measured after 24 hrs by Annexin V-FITC/propidium iodide staining based flow cytometry; format: functional, cell-based
[17] = test system: HepG2; assay: Induction of morphological changes in human HepG2 cells assessed as decrease in cell number at 15 uM measured after 24 hrs by high-throughput microscopy; format: functional, cell-based
[18] = test system: HepG2; assay: Induction of cell membrane disruption in human HepG2 cells assessed as increase in LDH release at 15 uM measured after 1 hr by LDH releasing reagent based assay
[19] = Drug uptake in human L02 cells at 15 uM measured after 1 hr by Hoechst 33258 staining based flow cyotmetry; format: ADME, cell-based; settings: l02, 1 h
[20] = Drug uptake in human L02 cells at 15 uM measured after 1 hr by Hoechst 33258 staining based confocal laser scanning microscopy; format: ADME, cell-based; settings: l02, 1 h
[21] = Drug uptake in human BEAS-2B cells at 15 uM measured after 1 hr by Hoechst 33258 staining based flow cyotmetry; format: ADME, cell-based
[22] = Drug uptake in human HepG2 cells at 15 uM measured after 1 hr by Hoechst 33258 staining based flow cyotmetry; format: ADME, cell-based; settings: hepg2, 1 h
[23] = Drug uptake in human A549 cells at 15 uM measured after 1 hr by Hoechst 33258 staining based confocal laser scanning microscopy; format: ADME, cell-based; settings: a549, 1 h
[24] = Drug uptake in human A549 cells at 15 uM measured after 1 hr by Hoechst 33258 staining based flow cyotmetry; format: ADME, cell-based; settings: a549, 1 h
[25] = Drug uptake in human BEAS-2B cells at 15 uM measured after 1 hr by Hoechst 33258 staining based confocal laser scanning microscopy; format: ADME, cell-based
[26] = Drug uptake in human HepG2 cells at 15 uM measured after 1 hr by Hoechst 33258 staining based confocal laser scanning microscopy; format: ADME, cell-based; settings: hepg2, 1 h

Compound | Activity [2] | IC50 at 24 h [4] [µM] | pIC50 [5] | IC50 at 24 h [6] [µM] | pIC50 [7] | Activity [9] | Activity [11] | Activity [12] | Activity [13] | Activity [14] | Activity [15] | Activity [16] | Activity [17] | Activity [18] | other results
N=C(N)NCCC[C@H](NC(=O)[C@H](CCCNC(=N)N)NC(=O)[C@H](CCCNC(=N)N)NC(=O)[C@H](CCCNC(=N)N)NC(=O)[C@H](CCCNC(=N)N)NC(=O)[C@H](CCCNC(=N)N)NC(=O)[C@H](CCCNC(=N)N)NC(=O)[C@H](CCCNC(=N)N)NC(=O)[C@@H](N)CCCNC(=N)N)C(=O)O | Non-Toxic | > 100 | < 4.00 | > 100 | < 4.00 | Non-Toxic |  |  |  |  |  |  |  |  | viability at 15 µM [1]: > 80%; viability at 30 µM [3]: > 90%; viability at 30 µM [8]: > 90%; viability at 15 µM [10]: > 80%
N=C(N)NCCC[C@H](NC(=O)[C@H](CCCNC(=N)N)NC(=O)[C@H](CCCNC(=N)N)NC(=O)[C@H](CCC(N)=O)NC(=O)[C@H](CCCNC(=N)N)NC(=O)[C@H](CCCNC(=N)N)NC(=O)[C@H](CCCCN)NC(=O)[C@H](CCCCN)NC(=O)[C@H](CCCNC(=N)N)NC(=O)CNC(=O)[C@@H](N)Cc1ccc(O)cc1)C(=O)O | Non-Toxic | > 100 | < 4.00 | > 100 | < 4.00 | Non-Toxic |  |  |  |  |  |  |  |  | viability at 15 µM [1]: > 80%; viability at 30 µM [3]: > 90%; viability at 30 µM [8]: > 90%; viability at 15 µM [10]: > 80%
CC(C)C[C@H](NC(=O)[C@H](CCCCN)NC(=O)CNC(=O)[C@H](CC(C)C)NC(=O)[C@@H](NC(=O)[C@@H](NC(=O)[C@H](CC(C)C)NC(=O)[C@H](CCC(=O)O)NC(=O)[C@@H](N)Cc1c[nH]c2ccccc12)C(C)C)C(C)C)C(=O)O (H-WELVVLGKL-OH) | Non-Toxic |  | 4.05 |  |  | Non-Toxic |  |  |  |  |  |  |  |  | 
CC(C)C[C@H](NC(=O)[C@H](CCCCN)NC(=O)CNC(=O)[C@H](CC(C)C)NC(=O)[C@@H](NC(=O)[C@@H](NC(=O)[C@H](CC(C)C)NC(=O)[C@H](CCC(=O)O)NC(=O)[C@@H](N)Cc1c[nH]c2ccccc12)C(C)C)C(C)C)C(=O)N[C@@H](CC(C)C)C(=O)N[C@@H](CC(C)C)C(=O)N[C@@H](Cc1c[nH]cn1)C(=O)N[C@@H](Cc1c[nH]cn1)C(=O)N[C@@H](CC(C)C)C(=O)N[C@@H](CC(C)C)C(=O)N[C@@H](Cc1c[nH]cn1)C(=O)N[C@@H](Cc1c[nH]cn1)C(=O)N[C@@H](CC(C)C)C(=O)N[C@@H](CC(C)C)C(=O)N[C@@H](Cc1c[nH]cn1)C(=O)N[C@@H](Cc1c[nH]cn1)C(=O)N[C@@H](CCCNC(=N)N)C(=O)N[C@@H](CCCNC(=N)N)C(=O)N[C@@H](CCCNC(=N)N)C(=O)N[C@@H](CCCNC(=N)N)C(=O)N[C@@H](CCCNC(=N)N)C(=O)N[C@@H](CCCNC(=N)N)C(=O)N[C@@H](CCCNC(=N)N)C(=O)N[C@@H](CCCNC(=N)N)C(=O)N[C@@H](CCCNC(=N)N)C(=O)O (H-WELVVLGKLLLHHLLHHLLHHRRRRRRRRR-OH) | Non-Toxic | 15.6 | 4.98 | 18.5 | 4.99 | Non-Toxic | Active | Active | Active | Active | Active | Active | Active | Active | 
CC(C)C[C@H](NC(=O)[C@H](CCCCN)NC(=O)CNC(=O)[C@H](CC(C)C)NC(=O)[C@@H](NC(=O)[C@@H](NC(=O)[C@H](CC(C)C)NC(=O)[C@H](CCC(=O)O)NC(=O)[C@@H](N)Cc1c[nH]c2ccccc12)C(C)C)C(C)C)C(=O)N[C@@H](CCCNC(=N)N)C(=O)N[C@@H](CCCNC(=N)N)C(=O)N[C@@H](CCCNC(=N)N)C(=O)N[C@@H](CCCNC(=N)N)C(=O)N[C@@H](CCCNC(=N)N)C(=O)N[C@@H](CCCNC(=N)N)C(=O)N[C@@H](CCCNC(=N)N)C(=O)N[C@@H](CCCNC(=N)N)C(=O)N[C@@H](CCCNC(=N)N)C(=O)O (H-WELVVLGKLRRRRRRRRR-OH) | Non-Toxic | 21.6 | 4.76 | 22.8 | 4.84 | Non-Toxic | Active | Active | Active | Active | Active | Active | Active | Active | Activity ([5]; DDE = dose-dependent effect): Dde; Activity ([7]; DDE = dose-dependent effect): Dde
CC(C)C[C@H](NC(=O)[C@H](CCCCN)NC(=O)CNC(=O)[C@H](CC(C)C)NC(=O)[C@@H](NC(=O)[C@@H](NC(=O)[C@H](CC(C)C)NC(=O)[C@H](CCC(=O)O)NC(=O)[C@H](Cc1c[nH]c2ccccc12)Nc1ccc([N+](=O)[O-])c2nonc12)C(C)C)C(C)C)C(=O)N[C@@H](CC(C)C)C(=O)N[C@@H](CC(C)C)C(=O)N[C@@H](Cc1c[nH]cn1)C(=O)N[C@@H](Cc1c[nH]cn1)C(=O)N[C@@H](CC(C)C)C(=O)N[C@@H](CC(C)C)C(=O)N[C@@H](Cc1c[nH]cn1)C(=O)N[C@@H](Cc1c[nH]cn1)C(=O)N[C@@H](CC(C)C)C(=O)N[C@@H](CC(C)C)C(=O)N[C@@H](Cc1c[nH]cn1)C(=O)N[C@@H](Cc1c[nH]cn1)C(=O)N[C@@H](CCCNC(=N)N)C(=O)N[C@@H](CCCNC(=N)N)C(=O)N[C@@H](CCCNC(=N)N)C(=O)N[C@@H](CCCNC(=N)N)C(=O)N[C@@H](CCCNC(=N)N)C(=O)N[C@@H](CCCNC(=N)N)C(=O)N[C@@H](CCCNC(=N)N)C(=O)N[C@@H](CCCNC(=N)N)C(=O)N[C@@H](CCCNC(=N)N)C(=O)O (H-[X1]ELVVLGKLLLHHLLHHLLHHRRRRRRRRR-OH) |  |  |  |  |  |  |  |  |  |  |  |  |  |  | Drug uptake [19]: Active; Drug uptake [20]: Active; Drug uptake [21]: Active; Drug uptake [22]: Active; Drug uptake [23]: Active; Drug uptake [24]: Active; Drug uptake [25]: Active; Drug uptake [26]: Active
I: H-WELVVLGKLGLRKRLRKFRNKIKEK / II: H-GLRKRLRKFR[ξN]KIKEK-OH (amide I:C-II:4) | Non-Toxic | 18.4 | 4.88 | 19.8 | 4.88 | Non-Toxic | Active | Active | Active | Active | Active | Active | Active | Active | 

— ChEMBL document CHEMBL5120831, “Pep5-based antitumor peptides containing multifunctional fragments with enhanced activity and synergistic effect” (Eur J Med Chem, 2022)
